Test results published in ChEMBL document CHEMBL5038589, “Design, Synthesis, and Structure-Activity Relationship of N-Aryl-N'-(thiophen-2-yl)thiourea Derivatives as Novel and Specific Human TLR1/2 Agonists for Potential Cancer Immunotherapy” (J Med Chem, 2021).
Active and inactive are the calls of the source. The rule behind the calls is not given here.

Tests used:
[1] = target: Toll-like receptor 2 (Homo sapiens, UniProt O60603); assay: Agonist activity at TLR2 in HEK-Blue cells incubated for 24 hrs by Quanti-Blue based SEAP assay; assay type: cell-based; conditions: HEK-Blue hTLR2, filed as agonist
Sequence of Toll-like receptor 2 (O60603 whole entry): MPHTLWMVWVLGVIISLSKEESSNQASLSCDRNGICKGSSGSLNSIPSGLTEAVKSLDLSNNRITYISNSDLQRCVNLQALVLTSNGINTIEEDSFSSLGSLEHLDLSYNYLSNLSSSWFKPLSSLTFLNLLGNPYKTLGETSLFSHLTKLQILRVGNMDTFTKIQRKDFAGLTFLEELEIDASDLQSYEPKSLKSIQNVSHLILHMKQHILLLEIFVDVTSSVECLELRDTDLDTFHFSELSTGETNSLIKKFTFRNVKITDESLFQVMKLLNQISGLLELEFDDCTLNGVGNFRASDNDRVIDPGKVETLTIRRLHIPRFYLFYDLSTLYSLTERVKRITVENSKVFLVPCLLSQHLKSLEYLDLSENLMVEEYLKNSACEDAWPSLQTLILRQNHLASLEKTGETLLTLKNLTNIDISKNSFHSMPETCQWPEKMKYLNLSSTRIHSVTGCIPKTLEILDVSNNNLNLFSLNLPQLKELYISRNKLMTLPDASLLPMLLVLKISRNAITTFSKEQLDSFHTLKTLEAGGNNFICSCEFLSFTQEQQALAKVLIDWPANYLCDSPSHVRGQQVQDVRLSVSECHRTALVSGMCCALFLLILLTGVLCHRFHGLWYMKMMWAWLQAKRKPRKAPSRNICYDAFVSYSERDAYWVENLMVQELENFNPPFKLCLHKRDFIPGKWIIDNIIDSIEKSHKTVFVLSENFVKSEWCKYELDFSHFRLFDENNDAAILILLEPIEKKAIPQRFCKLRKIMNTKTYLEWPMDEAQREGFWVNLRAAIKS

[2] = target: Toll-like receptor 7 (Homo sapiens) (UniProt Q9NYK1); assay: Agonist activity at TLR7 in HEK-Blue hTLR7 cells at 0.1 to 100 uM incubated for 24 hrs by Quanti-Blue based SEAP assay; assay type: cell-based; conditions: dose 0.1-100 µM
Sequence of Toll-like receptor 7 (Homo sapiens) (Q9NYK1 whole entry): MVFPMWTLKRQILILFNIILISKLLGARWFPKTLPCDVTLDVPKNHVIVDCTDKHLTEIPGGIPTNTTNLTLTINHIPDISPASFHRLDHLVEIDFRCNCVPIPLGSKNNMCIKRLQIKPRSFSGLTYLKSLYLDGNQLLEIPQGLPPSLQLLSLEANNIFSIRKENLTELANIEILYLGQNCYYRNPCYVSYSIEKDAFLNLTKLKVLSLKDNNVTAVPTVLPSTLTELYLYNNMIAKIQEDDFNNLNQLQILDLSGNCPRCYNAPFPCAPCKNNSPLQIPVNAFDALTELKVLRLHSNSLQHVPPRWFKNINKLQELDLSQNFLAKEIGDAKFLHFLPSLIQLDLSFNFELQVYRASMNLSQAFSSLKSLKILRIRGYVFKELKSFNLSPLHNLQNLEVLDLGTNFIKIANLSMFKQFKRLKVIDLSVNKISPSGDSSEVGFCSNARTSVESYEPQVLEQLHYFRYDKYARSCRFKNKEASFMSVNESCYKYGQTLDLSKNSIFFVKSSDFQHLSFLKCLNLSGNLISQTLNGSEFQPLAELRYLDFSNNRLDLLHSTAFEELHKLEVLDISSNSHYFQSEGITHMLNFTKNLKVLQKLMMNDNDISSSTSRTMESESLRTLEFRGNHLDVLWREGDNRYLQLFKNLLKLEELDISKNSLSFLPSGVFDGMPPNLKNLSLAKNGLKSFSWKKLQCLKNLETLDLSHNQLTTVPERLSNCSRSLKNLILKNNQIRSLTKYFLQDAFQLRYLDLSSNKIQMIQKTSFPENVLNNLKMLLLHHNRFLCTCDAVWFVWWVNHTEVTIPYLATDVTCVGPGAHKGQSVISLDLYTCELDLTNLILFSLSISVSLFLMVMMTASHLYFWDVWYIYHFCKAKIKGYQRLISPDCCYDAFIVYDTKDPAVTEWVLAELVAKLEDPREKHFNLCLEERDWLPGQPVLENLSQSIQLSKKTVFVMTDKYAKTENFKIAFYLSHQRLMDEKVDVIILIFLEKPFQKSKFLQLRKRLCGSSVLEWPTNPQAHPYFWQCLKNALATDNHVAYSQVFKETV

[3] = target: Toll-like receptor 1 (Homo sapiens) (UniProt Q15399); assay: Agonist activity at TLR1 in HEK-Blue hTLR2 cells at 0.2 uM incubated for 24 hrs in presence of anti-hTLR1-IgG antibodies measured by Quanti-Blue based SEAP assay; assay type: cell-based; conditions: filed as agonist
Sequence of Toll-like receptor 1 (Homo sapiens) (Q15399 whole entry): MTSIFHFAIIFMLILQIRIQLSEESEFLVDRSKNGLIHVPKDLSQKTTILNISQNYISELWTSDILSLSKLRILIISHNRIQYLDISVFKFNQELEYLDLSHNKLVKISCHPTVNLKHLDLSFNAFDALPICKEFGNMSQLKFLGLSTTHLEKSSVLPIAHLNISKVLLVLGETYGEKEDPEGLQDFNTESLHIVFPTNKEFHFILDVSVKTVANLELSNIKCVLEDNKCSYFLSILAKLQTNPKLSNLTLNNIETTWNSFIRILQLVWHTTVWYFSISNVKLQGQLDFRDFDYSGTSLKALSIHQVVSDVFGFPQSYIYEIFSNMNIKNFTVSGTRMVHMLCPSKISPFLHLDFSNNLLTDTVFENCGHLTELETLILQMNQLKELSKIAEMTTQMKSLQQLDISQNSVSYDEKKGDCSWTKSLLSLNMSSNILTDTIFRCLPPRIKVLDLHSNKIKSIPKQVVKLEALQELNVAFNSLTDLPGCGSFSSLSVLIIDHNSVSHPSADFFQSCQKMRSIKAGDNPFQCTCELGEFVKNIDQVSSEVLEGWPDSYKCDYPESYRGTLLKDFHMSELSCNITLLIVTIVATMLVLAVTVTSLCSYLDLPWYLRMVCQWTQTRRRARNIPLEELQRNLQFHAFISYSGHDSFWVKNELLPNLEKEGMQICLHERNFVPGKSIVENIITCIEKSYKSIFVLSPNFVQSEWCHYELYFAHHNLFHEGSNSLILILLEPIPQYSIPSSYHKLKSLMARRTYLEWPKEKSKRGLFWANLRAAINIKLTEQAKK

[4] = Cytotoxicity against human PBMC upto 100 uM incubated for 24 hrs by CCK-8 assay; assay type: toxicity, cell-based
[5] = Cytotoxicity against HEK-Blue TLR2 cells incubated for 24 hrs by CCK-8 assay; assay type: toxicity, cell-based, HEK-Blue hTLR2; conditions: human
[6] = Selectivity index, ratio of CC50 for HEK-Blue TLR2 cells to EC50 for agonist activity at TLR2 in HEK-Blue TLR2 cells; assay type: functional
[7] = test system: HEK-Blue hTLR2; assay: Upregulation of TLR2 expression in HEK-Blue TLR2 cells incubated for 24 hrs by Western blot analysis; assay type: functional, cell-based; conditions: Homo sapiens, dose 0.01-50 µM
[8] = test system: THP-1; assay: Induction of TNFalpha secretion in TLR2 knock down human THP-1 cells at 20 to 40 uM incubated for 24 hrs by ELISA method; assay type: functional, cell-based; conditions: dose 20-40 µM
[9] = test system: THP-1; assay: Upregulation of TLR1 expression in human THP-1 cells at 20 uM by immunoprecipitation method; assay type: functional, cell-based
[10] = test system: THP-1; assay: Upregulation of TLR2 expression in human THP-1 cells at 20 uM by immunoprecipitation method; assay type: functional, cell-based
[11] = test system: THP-1; assay: Upregulation of TLR6 expression in human THP-1 cells at 20 uM by immunoprecipitation method; assay type: functional, cell-based
[12] = test system: THP-1; assay: Agonist activity at TLR2/MyD88 in human THP-1 cells assessed as induction of TLR2/MyD88 complex formation at 20 uM incubated for 12 hrs by coimmunoprecipitation method; assay type: cell-based; conditions: filed as agonist
[13] = test system: THP-1; assay: Upregulation of MyD88 expression in human PMA-differentiated THP-1 cells in presence of T6167923 at 10 uM incubated for 2 hrs by western blot analysis; assay type: functional, cell-based
[14] = test system: THP-1; assay: Upregulation of MyD88 expression in human PMA-differentiated THP-1 cells assessed as induction of IKKalpha phosphorylation at 10 uM incubated for 2 hrs by Western blot analysis; assay type: functional, cell-based
[15] = test system: THP-1; assay: Upregulation of MyD88 expression in human PMA-differentiated THP-1 cells assessed as induction of IKKbeta phosphorylation at 10 uM incubated for 2 hrs by Western blot analysis; assay type: functional, cell-based
[16] = test system: THP-1; assay: Upregulation of MyD88 expression in human PMA-differentiated THP-1 cells assessed as induction of p38 phosphorylation at 10 uM incubated for 2 hrs by Western blot analysis; assay type: functional, cell-based
[17] = test system: THP-1; assay: Upregulation of MyD88 expression in human PMA-differentiated THP-1 cells assessed as downregulation of IkappaBalpha at 10 uM incubated for 2 hrs by Western blot analysis; assay type: functional, cell-based
[18] = test system: THP-1; assay: Induction of JNK phosphorylation in human PMA-differentiated THP-1 cells at 10 uM incubated for 2 hrs by Western blot analysis; assay type: functional, cell-based
[19] = test system: PBMC; assay: Induction of TNFalpha secretion in human PBMC incubated for 24 hrs by ELISA method; assay type: functional, cell-based; conditions: dose 0.01-10 µM
[20] = test system: Macrophage; assay: Induction of TNFalpha secretion in TLR2-/- C57BL/6 mouse peritoneal macrophages at 0.01 to 10 uM incubated for 24 hrs by ELISA method; assay type: functional, cell-based; conditions: dose 0.01-10 µM
[21] = test system: Macrophage; assay: Induction of TNFalpha secretion in wild-type C57BL/6 mouse peritoneal macrophages at 0.01 to 10 uM incubated for 24 hrs by ELISA method; assay type: functional, cell-based; conditions: dose 0.01-10 µM
[22] = test system: RAW264.7; assay: Induction of nitric oxide release in mouse RAW264.7 cells at 0.01 to 10 uM incubated for 24 hrs by Griess reagent based assay; assay type: functional, cell-based; conditions: dose 0.01-10 µM
[23] = target: Nuclear factor NF-kappa-B complex (Homo sapiens) (UniProt Q00653+P19838+Q04206); assay: Activation of NF-kappaB signalling in HEK-Blue hTLR2 cells at 10 uM in presence of triptolide; assay type: cell-based
Sequence of Nuclear factor NF-kappa-B complex (Homo sapiens) (P19838 whole entry, looked up): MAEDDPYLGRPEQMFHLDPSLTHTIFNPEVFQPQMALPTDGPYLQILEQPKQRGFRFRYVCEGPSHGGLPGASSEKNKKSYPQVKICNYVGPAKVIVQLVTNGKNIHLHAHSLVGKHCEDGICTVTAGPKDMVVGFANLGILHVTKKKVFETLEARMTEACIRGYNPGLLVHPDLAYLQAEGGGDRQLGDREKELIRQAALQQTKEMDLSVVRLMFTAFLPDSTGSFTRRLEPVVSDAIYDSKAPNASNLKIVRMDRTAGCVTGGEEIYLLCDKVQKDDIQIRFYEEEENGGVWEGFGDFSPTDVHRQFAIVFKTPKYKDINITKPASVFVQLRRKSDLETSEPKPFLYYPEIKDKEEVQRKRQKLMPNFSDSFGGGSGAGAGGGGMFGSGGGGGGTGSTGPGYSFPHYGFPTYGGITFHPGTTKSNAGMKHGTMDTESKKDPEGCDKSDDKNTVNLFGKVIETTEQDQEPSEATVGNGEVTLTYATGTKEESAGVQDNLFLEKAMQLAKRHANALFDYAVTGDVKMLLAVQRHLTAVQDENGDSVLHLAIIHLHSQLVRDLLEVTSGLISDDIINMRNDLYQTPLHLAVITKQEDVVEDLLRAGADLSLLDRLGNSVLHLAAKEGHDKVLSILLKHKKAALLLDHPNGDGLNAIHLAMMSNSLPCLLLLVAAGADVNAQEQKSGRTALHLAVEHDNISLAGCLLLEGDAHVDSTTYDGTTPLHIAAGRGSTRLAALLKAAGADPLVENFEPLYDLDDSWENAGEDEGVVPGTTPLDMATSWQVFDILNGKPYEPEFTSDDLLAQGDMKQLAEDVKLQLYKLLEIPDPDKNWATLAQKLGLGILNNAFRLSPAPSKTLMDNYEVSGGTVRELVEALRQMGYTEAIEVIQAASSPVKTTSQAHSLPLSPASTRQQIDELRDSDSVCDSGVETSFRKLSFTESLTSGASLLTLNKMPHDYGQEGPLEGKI
Sequence of Nuclear factor NF-kappa-B complex (Homo sapiens) (Q00653 whole entry, looked up): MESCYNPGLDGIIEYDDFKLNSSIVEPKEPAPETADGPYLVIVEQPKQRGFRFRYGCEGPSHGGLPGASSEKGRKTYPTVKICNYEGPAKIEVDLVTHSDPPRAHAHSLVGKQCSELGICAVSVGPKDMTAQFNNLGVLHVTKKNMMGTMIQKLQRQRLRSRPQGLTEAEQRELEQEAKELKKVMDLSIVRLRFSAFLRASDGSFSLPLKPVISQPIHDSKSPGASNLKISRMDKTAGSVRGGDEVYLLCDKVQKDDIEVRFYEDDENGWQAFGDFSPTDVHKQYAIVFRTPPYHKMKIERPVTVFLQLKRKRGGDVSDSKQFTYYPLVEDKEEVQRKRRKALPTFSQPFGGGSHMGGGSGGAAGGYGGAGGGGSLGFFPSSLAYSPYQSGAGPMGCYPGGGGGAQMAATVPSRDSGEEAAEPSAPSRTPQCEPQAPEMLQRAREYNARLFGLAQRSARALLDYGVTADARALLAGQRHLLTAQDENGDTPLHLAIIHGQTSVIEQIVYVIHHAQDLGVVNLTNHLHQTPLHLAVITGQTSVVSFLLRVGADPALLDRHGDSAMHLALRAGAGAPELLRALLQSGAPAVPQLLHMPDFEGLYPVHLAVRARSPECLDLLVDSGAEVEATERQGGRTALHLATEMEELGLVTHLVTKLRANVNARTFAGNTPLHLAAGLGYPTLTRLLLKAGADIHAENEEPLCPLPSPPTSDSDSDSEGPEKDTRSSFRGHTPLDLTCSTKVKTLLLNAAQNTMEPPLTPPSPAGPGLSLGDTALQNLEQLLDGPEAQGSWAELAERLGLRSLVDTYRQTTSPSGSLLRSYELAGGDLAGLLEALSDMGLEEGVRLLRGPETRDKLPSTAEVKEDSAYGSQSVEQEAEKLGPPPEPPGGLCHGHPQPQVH
Sequence of Nuclear factor NF-kappa-B complex (Homo sapiens) (Q04206 whole entry, looked up): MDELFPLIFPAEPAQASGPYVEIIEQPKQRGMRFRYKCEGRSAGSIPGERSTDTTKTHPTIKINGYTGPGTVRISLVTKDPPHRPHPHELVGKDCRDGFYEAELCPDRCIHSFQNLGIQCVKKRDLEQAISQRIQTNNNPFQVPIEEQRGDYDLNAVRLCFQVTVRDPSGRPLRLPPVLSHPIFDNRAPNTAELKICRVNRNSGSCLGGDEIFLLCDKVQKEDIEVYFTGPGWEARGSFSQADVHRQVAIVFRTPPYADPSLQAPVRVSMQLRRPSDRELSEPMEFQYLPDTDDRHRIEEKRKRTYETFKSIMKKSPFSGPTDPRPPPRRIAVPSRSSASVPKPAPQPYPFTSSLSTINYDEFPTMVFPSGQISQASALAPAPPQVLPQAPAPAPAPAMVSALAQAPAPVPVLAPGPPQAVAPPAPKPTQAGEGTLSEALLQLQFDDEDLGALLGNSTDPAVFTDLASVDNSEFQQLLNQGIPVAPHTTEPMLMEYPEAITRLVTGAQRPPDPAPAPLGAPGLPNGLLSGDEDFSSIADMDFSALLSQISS

[24] = test system: CD3-positive T cell; assay: Immunostimulatory activity in human CD3+ T cells at 0.1 to 10 uM incubated for 48 hrs by flow cytometry analysis; assay type: functional, cell-based; conditions: dose 0.1-10 µM
[25] = Immunostimulatory activity in human CD8+ T cells assessed as fold increase at 0.1 to 10 uM incubated for 48 hrs by flow cytometry analysis; assay type: functional, CD8-positive T cell; conditions: dose 0.1-10 µM
[26] = test system: Monocyte; assay: Immunostimulatory activity in human monocytes assessed as fold increase at 0.1 to 10 uM incubated for 48 hrs by flow cytometry analysis; assay type: functional; conditions: dose 0.1-10 µM
[27] = test system: Natural killer cell; assay: Immunostimulatory activity in human NK cells assessed as fold increase at 0.1 to 10 uM incubated for 48 hrs by flow cytometry analysis; assay type: functional; conditions: dose 0.1-10 µM
[28] = test system: B cell; assay: Immunostimulatory activity in human B cells assessed as fold increase at 0.1 to 10 uM incubated for 48 hrs by flow cytometry analysis; assay type: functional; conditions: dose 0.1-10 µM
[29] = test system: CD3-positive T cell; assay: Immunostimulatory activity in mouse C57 spleen CD3+ T cells in assessed as fold increase at 0.1 to 10 uM incubated for 48 hrs by flow cytometry analysis; assay type: functional, cell-based; conditions: dose 0.1-10 µM
[30] = test system: HCT-116; assay: Induction of apoptosis in human HCT-116 cells cocultured with PMA-differentiated THP-1 cells assessed as increase in annexin-V positive cells at 10 uM measured after 24 hrs by annexin V-FITC/PI staining based flow cytometry (reference value: 16.23%); assay type: functional
[31] = test system: HCT-116; assay: Induction of apoptosis in human HCT-116 cells cocultured with PMA-differentiated THP-1 cells assessed as early apoptotic cells at 10 uM measured after 24 hrs using annexin V-FITC/PI staining based flow cytometry; assay type: functional
[32] = test system: HCT-116; assay: Induction of apoptosis in human HCT-116 cells cocultured with PMA-differentiated THP-1 cells assessed as late apoptotic cells at 10 uM measured after 24 hrs using annexin V-FITC/PI staining based flow cytometry; assay type: functional
[33] = test system: MCF7; assay: Induction of apoptosis in human MCF7 cells cocultured with PMA-differentiated THP-1 cells assessed as late apoptotic cells at 10 uM measured after 24 hrs by annexin V-FITC/PI staining based flow cytometry (reference value: 5.41 %); assay type: functional
[34] = test system: MCF7; assay: Induction of apoptosis in human MCF7 cells cocultured with PMA-differentiated THP-1 cells assessed as early apoptotic cells at 10 uM measured after 24 hrs by annexin V-FITC/PI staining based flow cytometry (reference value: 7.87 %); assay type: functional
[35] = test system: HCT-116; assay: Induction of apoptosis in human HCT-116 cells upto 100 uM by microplate reader analysis; assay type: functional, cell-based; conditions: dose microM <=100
[36] = test system: MCF7; assay: Induction of apoptosis in human MCF7 cells upto 100 uM by microplate reader analysis; assay type: functional, cell-based; conditions: dose microM <=100
[37] = test system: THP-1; assay: Upregulation of MyD88 expression in human PMA-differentiated THP-1 cells in presence of T6167923 at 10 uM after 30 mins by western blot analysis; assay type: functional, cell-based

In the case of `CC(C)OC(=O)c1c(NC(=S)Nc2ccc(F)c3ccccc23)sc2c1CCC2`, the Activity [1] is reported as “Dose-Dependent Effect”, the Activity [2] is reported as “inactive” and the Activity [3] is reported as “Active”. The Activity [4] was “Non-Toxic”, the CC50 at 24 h [5] was greater than 100 µM and the “Ratio CC50/EC50” value [6] was greater than 3200. The Activity [7] was “Dose-Dependent Effect”, the Activity [8] was “inactive” and the Activity [9] was “Active”. The Activity [10] was “Active”, the Activity [11] was “inactive” and the Activity [12] was “Active”. For the same compound, the Activity [13] was “inactive”, the Activity [14] was “Active” and the Activity [15] was “Active”. For the same compound, the Activity [16] was “Active”, the Activity [17] was “Active” and the Activity [18] was “inactive”. The Activity [19] was “Dose-Dependent Effect”, the Activity [20] was “inactive” and the Activity [21] was “inactive”. For the same compound, the Activity [22] was “inactive”, the Activity [23] was “inactive” and the Activity [24] was “Active”. For the same compound, the “fold change (FC)” value [25] was 2, the “fold change (FC)” value [26] was 2 and the “fold change (FC)” value [27] was 2. The “fold change (FC)” value [28] was 7, the Activity [29] was “inactive” and the Activity [30] was 25.85%. It also gave an Activity [31] of 11.5%, an Activity [32] of 14.3% and an Activity [33] of 25%. For the same compound, the Activity [34] was 16.4%, the Activity [35] was “inactive” and the Activity [36] was “inactive”. The Activity [37] was “Active”.
